Where two headings read alike, the source gives them in different places.
What was measured:
Test in all cases: In vitro competitive activity-based protein profiling (gel-based, FP-Rh or HT-01 probe)
Format in all cases: biochemical
[1] = biological target: T1, PLA2G7 (Mus musculus, UniProt Q60963); conditions: for inhibition at 1 µM: 1 μM inhibitor, read-out: % Inhibition at 1 μM, D = PLA2G7; for IC50: mouse brain membrane fraction or cell lysates, 30 min preincubation at 37° C.; for inhibition at 10 µM: 10 μM inhibitor, read-out: % Inhibition at 10 μM, D = PLA2G7
T1 construct: Proteomes (mouse brain membrane fraction or cell lysates); from tissue; host or cells: mouse brain membrane fraction (or cell lysates, not specified)
T1 sequence (Q60963 22-440): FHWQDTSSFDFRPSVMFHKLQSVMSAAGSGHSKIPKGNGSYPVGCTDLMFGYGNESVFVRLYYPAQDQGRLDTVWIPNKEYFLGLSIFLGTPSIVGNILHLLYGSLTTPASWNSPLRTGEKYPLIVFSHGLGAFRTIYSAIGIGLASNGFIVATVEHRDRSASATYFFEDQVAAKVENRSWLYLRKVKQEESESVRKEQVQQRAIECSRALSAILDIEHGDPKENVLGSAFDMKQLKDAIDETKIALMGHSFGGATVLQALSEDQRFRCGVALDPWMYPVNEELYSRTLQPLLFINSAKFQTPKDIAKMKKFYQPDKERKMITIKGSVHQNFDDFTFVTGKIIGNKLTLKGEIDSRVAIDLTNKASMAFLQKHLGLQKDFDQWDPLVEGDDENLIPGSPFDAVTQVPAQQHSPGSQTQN
Outline: (§1)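 Steps: inhibitor dilutions + proteome (1.0 mg/mL), 30 min, 37° C; add FP-Rh or HT-01 (50 μM DMSO stock), 30 min, 37° C; quench in SDS buffer; SDS-PAGE; gel imaging; band densitometry.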

[2] = biological target: T2, FAAH (Mus musculus, UniProt O08914); conditions: for inhibition at 1 µM: 1 μM inhibitor, read-out: % Inhibition at 1 μM, B = FAAH; for IC50: mouse brain membrane fraction or cell lysates, 30 min preincubation at 37° C., read-out: Mouse (IC50 value, nM) FAAH; for inhibition at 10 µM: 10 μM inhibitor, read-out: % Inhibition at 10 μM, B = FAAH
T2 construct: Proteomes (mouse brain membrane fraction or cell lysates); from tissue; host or cells: mouse brain membrane fraction (or cell lysates, not specified)
T2 sequence (O08914 1-579): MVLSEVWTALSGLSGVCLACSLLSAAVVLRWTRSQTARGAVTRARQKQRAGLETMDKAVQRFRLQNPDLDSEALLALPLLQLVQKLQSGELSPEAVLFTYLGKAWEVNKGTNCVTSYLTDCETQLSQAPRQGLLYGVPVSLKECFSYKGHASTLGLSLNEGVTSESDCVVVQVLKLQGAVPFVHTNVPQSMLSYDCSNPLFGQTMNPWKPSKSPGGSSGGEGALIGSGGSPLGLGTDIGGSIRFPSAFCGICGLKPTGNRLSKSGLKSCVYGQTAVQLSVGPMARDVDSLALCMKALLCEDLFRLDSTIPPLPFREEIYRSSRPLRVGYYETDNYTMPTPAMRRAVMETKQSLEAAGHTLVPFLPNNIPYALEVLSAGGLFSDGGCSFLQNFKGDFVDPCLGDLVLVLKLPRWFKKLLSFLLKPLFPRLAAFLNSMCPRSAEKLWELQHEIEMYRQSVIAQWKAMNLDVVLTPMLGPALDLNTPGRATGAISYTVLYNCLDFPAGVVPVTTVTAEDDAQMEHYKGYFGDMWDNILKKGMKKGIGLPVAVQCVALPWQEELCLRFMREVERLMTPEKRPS
Outline: as §1

[3] = biological target: T3, ABHD6 (Mus musculus, UniProt Q8R2Y0); conditions: for inhibition at 1 µM: 1 μM inhibitor, read-out: % Inhibition at 1 μM, C = ABHD6; for IC50: mouse brain membrane fraction or cell lysates, 30 min preincubation at 37° C., read-out: Mouse (IC50 value, nM) ABHD6; for inhibition at 10 µM: 10 μM inhibitor, read-out: % Inhibition at 10 μM, C = ABHD6
T3 construct: Proteomes (mouse brain membrane fraction or cell lysates); from tissue; host or cells: mouse brain membrane fraction (or cell lysates, not specified)
T3 sequence (Q8R2Y0 1-336): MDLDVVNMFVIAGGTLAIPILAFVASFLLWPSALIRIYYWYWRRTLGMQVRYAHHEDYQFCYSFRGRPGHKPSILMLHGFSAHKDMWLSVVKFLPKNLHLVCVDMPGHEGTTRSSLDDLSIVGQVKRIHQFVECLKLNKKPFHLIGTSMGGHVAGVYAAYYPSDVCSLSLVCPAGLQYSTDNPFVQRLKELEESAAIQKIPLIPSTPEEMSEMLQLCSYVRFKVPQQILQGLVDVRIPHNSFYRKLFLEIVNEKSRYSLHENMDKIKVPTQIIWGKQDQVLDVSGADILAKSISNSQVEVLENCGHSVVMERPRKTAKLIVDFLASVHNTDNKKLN
Outline: as §1

[4] = biological target: T4, MAGL (Mus musculus, UniProt O35678); conditions: for inhibition at 1 µM: 1 μM inhibitor; for IC50: mouse brain membrane fraction or cell lysates, 30 min preincubation at 37° C., read-out: Mouse (IC50 value, nM) MAGL; for inhibition at 10 µM: 10 μM inhibitor
T4 construct: Proteomes (mouse brain membrane fraction or cell lysates); from tissue; host or cells: mouse brain membrane fraction (or cell lysates, not specified)
T4 sequence (O35678 1-303): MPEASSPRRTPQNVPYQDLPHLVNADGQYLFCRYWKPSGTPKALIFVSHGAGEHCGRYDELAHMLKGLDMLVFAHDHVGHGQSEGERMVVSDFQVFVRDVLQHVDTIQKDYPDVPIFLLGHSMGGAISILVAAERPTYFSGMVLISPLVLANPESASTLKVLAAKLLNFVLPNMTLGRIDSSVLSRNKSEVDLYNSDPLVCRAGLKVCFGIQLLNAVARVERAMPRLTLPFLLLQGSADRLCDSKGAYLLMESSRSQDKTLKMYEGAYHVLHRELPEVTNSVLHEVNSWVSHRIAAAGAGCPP
Outline: as §1

Row | Structure (SMILES) | inhibition at 1 µM ([1]; gel-based competitive ABPP) [%] | IC50 [1] [nM] | inhibition at 1 µM ([2]; gel-based competitive ABPP) [%] | IC50 [2] [nM] | inhibition at 1 µM ([3]; gel-based competitive ABPP) [%] | IC50 [3] [nM] | inhibition at 1 µM ([4]; gel-based competitive ABPP) [%] | IC50 [4] [nM] | inhibition at 1 µM [1] [%] | inhibition at 10 µM [1] [%] | inhibition at 10 µM [2] [%] | inhibition at 1 µM [3] [%] | inhibition at 10 µM [3] [%] | inhibition at 10 µM [4] [%] | inhibition at 1 µM [2] [%] | inhibition at 1 µM [4] [%]
1 | CCN(Cc1ccc(Cl)cc1)C(=O)n1cc(C(F)(F)F)cn1 [Example 253, N-(4-Chlorobenzyl)-N-ethyl-4-(trifluoromethyl)-1H-pyrazole-1-carboxamide] | < 25 | > 1000 | > 75 | < 100 | < 25 | > 1000 | 25 to 75 | > 1000 |  |  |  |  |  |  |  | 
2 | O=C(N1CCN(Cc2nccs2)CC1)n1cc(-c2ccccc2)cn1 [Example 63, (4-Phenyl-1H-pyrazol-1-yl)(4-(thiazol-2-ylmethyl)piperazin-1-yl)methanone] |  |  |  |  |  | 100 to 1000 |  |  | > 75 | > 75 | > 75 | > 75 | > 75 | < 25 |  | 
3 | NC(=O)c1cnn(C(=O)N2CCN(Cc3cccc(Oc4ccccc4)c3)CC2)c1 [Example 286, 1-(4-(3-phenoxybenzyl)piperazine-1-carbonyl)-1H-pyrazole-4-carboxamide] | 25 to 75 | 100 to 1000 | > 75 | < 100 | > 75 | < 100 | > 75 | < 100 |  |  |  |  |  |  |  | 
4 | Cc1cc(-c2ccccc2)ccc1CN1CCN(C(=O)n2cc(C(=O)N3CCOCC3)cn2)CC1 [Example 57, (4-((3-Methyl-[1,1′-biphenyl]-4-yl)methyl)piperazin-1-yl)(4-(morpholine-4-carbonyl)-1H-pyrazol-1-yl)methanone] |  |  |  | < 100 |  | 100 to 1000 |  | 100 to 1000 | < 25 | > 75 | > 75 | > 75 | > 75 | > 75 | > 75 | > 75
5 | O=C(c1cnn(C(=O)N2CCN(Cc3nccs3)CC2)c1)N1CCOCC1 [Example 55, (4-(Morpholine-4-carbonyl)-1H-pyrazol-1-yl)(4-(thiazol-2-ylmethyl)piperazin-1-yl)methanone] |  |  |  |  |  |  |  |  | < 25 | > 75 | 25 to 75 | 25 to 75 | > 75 | < 25 |  | 
6 | CCN(Cc1ccccc1OC)C(=O)n1cc(Cl)cn1 [Example 127, 4-Chloro-N-ethyl-N-(2-methoxybenzyl)-1H-pyrazole-1-carboxamide] |  |  |  |  |  |  |  |  | < 25 | < 25 | > 75 | < 25 | > 75 | > 75 | < 25 | < 25
7 | O=C(N1CCN(Cc2ccccc2)CC1)n1cccn1 [Example 7, (4-Benzylpiperazin-1-yl)(1H-pyrazol-1-yl)methanone] |  |  |  |  |  |  |  |  | < 25 | < 25 | > 75 | < 25 | > 75 | > 75 | < 25 | > 75
8 | O=C(c1cnn(C(=O)N2CCN(Cc3ccc4c(c3)OCO4)CC2)c1)N1CCC1 [Example 86, Azetidin-1-yl(1-(4-(benzo[d][1,3]dioxol-5-ylmethyl)piperazine-1-carbonyl)-1H-pyrazol-4-yl)methanone] |  |  |  |  |  |  |  |  | < 25 | > 75 | > 75 | 25 to 75 | > 75 | > 75 | > 75 | < 25
9 | O=C(c1cnn(C(=O)N2CCN(Cc3ccccn3)CC2)c1)N1CCOCC1 [Example 77, (4-(Morpholine-4-carbonyl)-1H-pyrazol-1-yl)(4-(pyridin-2-ylmethyl)piperazin-1-yl)methanone] |  |  |  |  |  |  |  |  | < 25 | > 75 | < 25 | < 25 | > 75 | < 25 |  | 
10 | CCN(Cc1ccc(OC)cc1)C(=O)n1cc(Cl)cn1 [Example 129, 4-Chloro-N-ethyl-N-(4-methoxybenzyl)-1H-pyrazole-1-carboxamide] |  |  |  | 100 to 1000 |  | > 1000 |  | > 1000 | < 25 | < 25 | > 75 | < 25 | 25 to 75 | > 75 | > 75 | < 25
11 | N#Cc1cnn(C(=O)N2CCCN(Cc3ccccc3)CC2)c1 [Example 179, 1-(4-Benzyl-1,4-diazepane-1-carbonyl)-1H-pyrazole-4-carbonitrile] |  | > 1000 |  | < 100 |  | > 1000 |  | > 1000 | < 25 | > 75 | > 75 | > 75 | > 75 | > 75 | > 75 | > 75
12 | Cc1cnn(C(=O)NCCCc2ccccc2)c1 [Example 32, 4-Methyl-N-(3-phenylpropyl)-1H-pyrazole-1-carboxamide] |  |  |  |  |  |  |  |  |  | < 25 | < 25 |  | < 25 | < 25 |  | 
13 | CN(CCN(C)S(C)(=O)=O)C(=O)n1cc(C#N)cn1 [Example 197, 4-Cyano-N-methyl-N-(2-(N-methylmethylsulfonamido)ethyl)-1H-pyrazole-1-carboxamide] |  |  |  |  |  |  |  |  | < 25 |  | > 75 | < 25 | 25 to 75 | < 25 | 25 to 75 | < 25
14 | Cc1cnn(C(=O)N2CCN(Cc3ccc(Oc4ccccc4)cc3)CC2)c1 [Example 17, (4-Methyl-1H-pyrazol-1-yl)(4-(4-phenoxybenzyl)piperazin-1-yl)methanone] |  |  |  |  |  |  |  |  | 25 to 75 | < 25 | > 75 | > 75 | > 75 | > 75 | 25 to 75 | > 75
15 | O=C(NCCCCCc1ccccc1)n1cccn1 [Example 37, N-(5-phenylpentyl)-1H-pyrazole-1-carboxamide] |  |  |  |  |  |  |  |  |  | < 25 | < 25 |  | < 25 | < 25 |  | 

Source: US10093630B2, “Pyrazole compounds and methods of making and using same” (ABIDE THERAPEUTICS, INC., priority 2014, dated 2018)
